Reference: patent publication US11006631B2, “Substituted pyrimidinyloxy pyridine derivatives as herbicides” (FMC Corporation, priority 2015, dated 2021)

Experiments:
Assay type in all cases: in vivo
kochia (Kochia scoparia) [1] = test: Test A preemergence, kochia; details: 0 to 100 scale
Source text: (§1) Seeds of plant species selected from bamyardgrass (Echinochloa crus-galli), kochia (Kochia scoparia), ragweed (common ragweed, Ambrosia elatior), ryegrass, Italian (Italian ryegrass, Lolium multiflorum), foxtail, giant (giant foxtail, Setaria faberii), pigweed (Amaranthus retroflexus), crabgrass, large (large crabgrass, Digitaria sanguinalis), momingglory (Ipomoea spp.), velvetleaf (Abutilon theophrasti), wheat (Triticum aestivum), and corn (Zea mays) were planted into a blend of loam soil and sand and treated preemergence with a directed soil spray using test chemicals formulated in a non-phytotoxic solvent mixture which included a surfactant. At the same time, plants selected from these crop and weed species and also blackgrass (Alopecurus myosuroides), and galium (catchweed bedstraw, Galium aparine) were planted in pots containing the same blend of loam soil and sand and treated with postemergence applications of test chemicals formulated in the same manner. Plants ranged in height from 2 to 10 cm and were in the one- to two-leaf stage for the postemergence treatment. Treated plants and untreated controls were maintained in a greenhouse for approximately 10 days, after which time all treated plants were compared to untreated controls and visually evaluated for injury. Plant response ratings, summarized in Table A, are based on a 0 to 100 scale where 0 is no effect and 100 is complete control. A dash (-) response means no test result.

[2] = system: pigweed (Amaranthus retroflexus); test: Test A preemergence, pigweed; details: 0 to 100 scale
Procedure, shortened: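 Visual injury score, 0 = no effect, 100 = complete control, assigned against untreated controls about 10 days post-treatment. Greenhouse pots, loam/sand soil. Pre: directed soil spray at planting. Post: plants 2–10 cm, one- to two-leaf stage. Solvent/surfactant formulation.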

kochia (Kochia scoparia) [3] = test: Test A postemergence, kochia; details: 0 to 100 scale
Source text: as §1

rice (Oryza sativa) = test: Test B flooded paddy test, rice; details: Flood, 250 g ai/ha; scale of 0 to 100
Procedure, shortened: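 Scoring: visual, compared with untreated controls, 0 = no effect through 100 = complete control, taken 13 to 15 days after treatment in the greenhouse. Compounds had been added to paddy water over soil flooded 3 cm deep at the plants' 2-leaf stage.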

[4] = system: pigweed (Amaranthus retroflexus); test: Test C postemergence, pigweed
Source text: Seeds of plant species selected from blackgrass (Alopecurus myosuroides), ryegrass, Italian (Italian ryegrass, Lolium multiflorum), wheat (winter wheat, Triticum aestivum), galium (catchweed bedstraw, Galium aparine), corn (Zea mays), crabgrass, large (large crabgrass, Digitaria sanguinalis), foxtail, giant (giant foxtail, Setaria faberii), lambsquarters (Chenopodium album), morningglory (Ipomoea coccinea), nutsedge, yellow (yellow nutsedge, Cyperus esculentus), pigweed (Amaranthus retroflexus), johnsongrass (Sorghum halepense), ragweed (common ragweed, Ambrosia elatior), soybean (Glycine max), barnyardgrass (Echinochloa crus-galli), oilseed rape (Brassica napus), waterhemp (common waterhemp, Amaranthus rudis), chickweed (common chickweed, Stellaria media), oat, wild (wild oat, Avena fatua), kochia (Kochia scoparia), and velvetleaf (Abutilon theophrasti) were planted in pots containing Redi-Earth® planting medium (Scotts Company, 14111 Scottslawn Road, Marysville, Ohio 43041) comprising spaghnum peat moss, vermiculite, wetting agent and starter nutrients and treated with postemergence applications of a test chemical formulated in a non-phytotoxic solvent mixture which included a surfactant. Plants ranged in height from 2 to 18 cm (1- to 4-leaf stage) for postemergence treatments. Treated plants and controls were maintained in a greenhouse for 13 to 15 days, after which time all species were compared to controls and visually evaluated. Plant response ratings, summarized in Table C, are based on a scale of 0 to 100 where 0 is no effect and 100 is complete control. A dash (-) response means no test result.

## FC(F)c1cc(-c2ncccc2Oc2ncc(Cl)cn2)on1 [Compound 5, 5-chloro-2-[[2-[3-(difluoromethyl)-5-isoxazolyl]-3-pyridinyl]oxy]pyrimidine]
Kochia (Kochia scoparia) [1]; 31 g ai/ha
  Plant response rating, Kochia: 10
Kochia (Kochia scoparia) [1]; 125 g ai/ha
  Plant response rating, Kochia: 80
[2]; 31 g ai/ha
  Plant response rating, Pigweed: 80
[2]; 125 g ai/ha
  Plant response rating, Pigweed: 100
Kochia (Kochia scoparia) [3]; 31 g ai/ha
  Plant response rating, Kochia: 80
Kochia (Kochia scoparia) [3]; 125 g ai/ha
  Plant response rating, Kochia: 90
Rice (Oryza sativa)
  Plant response rating, Rice: 0
[4]; 16 g ai/ha
  Plant response rating, Pigweed: 65
[4]; 31 g ai/ha
  Plant response rating, Pigweed: 75
[4]; 62 g ai/ha
  Plant response rating, Pigweed: 75
[4]; 125 g ai/ha
  Plant response rating, Pigweed: 85
